Measured values: patent US11548868B2, “Heterocyclic compounds, compositions comprising heterocyclic compound, and methods of use thereof” (JS INNOPHARM (SHANGHAI) LTD, priority 2017, dated 2023)

Legend:
[1] = target: T1, TDO2 in A172 cancer cells (Homo sapiens, UniProt P48775); assay: TDO2 Cellular Assay (kynurenine production in A172 cancer cells); assay type: cell-based; settings: L-Trp 1 mM, 24 hours incubation, kynurenine at 490 nm
T1 construct: endogenous in cells; host or cells: A172 cancer cells
In short: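 A172 cells seeded overnight, then given 1 mM L-Trp and test compound (0–25 μM, 0.25% DMSO) for 24 h at 37 °C. Supernatant treated with TCA at 50 °C to convert N-formylkynurenine, kynurenine detected with p-dimethylaminobenzaldehyde at 490 nm; IC50 by non-linear regression of inhibition versus DMSO control.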

[2] = target: T2, IDO1 in Hela cancer cells (Homo sapiens, UniProt P14902); assay: IDO1 Cellular Assay (kynurenine production in IFN-γ stimulated Hela cancer cells); assay type: cell-based; settings: human IFN-γ 50 ng/mL, 48 hours incubation, kynurenine at 490 nm
T2 construct: endogenous in cells; host or cells: Hela cancer cells stimulated with human IFN-γ
In short: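 HeLa cells stimulated with 50 ng/mL IFN-γ (final) and treated 48 h with compound (0–25 μM final, 0.25% DMSO). Supernatant kynurenine measured after TCA hydrolysis and p-dimethylaminobenzaldehyde reaction at 490 nm; inhibition vs DMSO control, IC50 by non-linear regression.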

T2 sequence (P14902 whole entry): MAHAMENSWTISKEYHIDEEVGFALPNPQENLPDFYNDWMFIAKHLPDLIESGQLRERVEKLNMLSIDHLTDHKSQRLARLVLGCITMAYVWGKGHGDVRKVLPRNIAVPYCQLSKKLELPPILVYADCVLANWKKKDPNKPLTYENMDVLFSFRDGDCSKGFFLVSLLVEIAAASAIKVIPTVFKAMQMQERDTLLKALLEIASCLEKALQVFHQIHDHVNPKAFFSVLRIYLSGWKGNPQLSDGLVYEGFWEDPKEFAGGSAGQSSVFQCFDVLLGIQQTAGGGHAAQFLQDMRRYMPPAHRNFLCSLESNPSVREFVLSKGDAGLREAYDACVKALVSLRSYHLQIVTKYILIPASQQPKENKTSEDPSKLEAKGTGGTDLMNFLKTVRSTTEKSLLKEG
T1 sequence (P48775 whole entry): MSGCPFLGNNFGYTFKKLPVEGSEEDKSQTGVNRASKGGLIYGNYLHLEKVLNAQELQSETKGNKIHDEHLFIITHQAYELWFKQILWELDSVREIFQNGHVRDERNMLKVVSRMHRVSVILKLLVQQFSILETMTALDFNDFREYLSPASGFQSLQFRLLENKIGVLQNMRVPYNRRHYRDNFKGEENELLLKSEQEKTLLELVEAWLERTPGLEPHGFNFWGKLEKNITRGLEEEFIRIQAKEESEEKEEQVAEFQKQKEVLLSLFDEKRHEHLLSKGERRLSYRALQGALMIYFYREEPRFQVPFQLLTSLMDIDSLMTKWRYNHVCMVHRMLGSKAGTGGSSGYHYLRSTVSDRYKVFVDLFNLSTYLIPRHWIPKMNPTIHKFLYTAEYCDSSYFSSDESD

| Compound | IC50 [1] [nM] | IC50 [2] [nM] |
| --- | --- | --- |
| CC(=O)N1C[C@@H]2CN(c3c(C4CC4)ccc4cncn34)C[C@@H]2C1(C)C (racemic) [Example 56, Racemic-1-((3aS,6aR)-5-(6-cyclopropylimidazo[1,5-a]pyridin-5-yl)-1,1-dimethylhexahydropyrrolo[3,4-c]pyrrol-2(1H)-yl)ethanone] | > 5000 | > 5000 |
| NS(=O)(=O)N[C@H]1[C@@H]2C[C@@](O)(c3cc(Cl)cc4[nH]ncc34)C[C@@H]21 [Example 140, N-((1R,3r,5S,6r)-3-(6-chloro-1H-indazol-4-yl)-3-hydroxybicyclo[3.1.0]hexan-6-yl)sulfuric diamide] | ≤ 500 | ≤ 500 |
| CC(=O)N1C[C@@H]2CN(c3cc(Cl)cc4cncn34)C[C@@H]2C1(C)C (racemic) [Example 43, Racemic-1-((3aS,6aR)-5-(7-chloroimidazo[1,5-a]pyridin-5-yl)-1,1-dimethylhexahydropyrrolo[3,4-c]pyrrol-2(1H)-yl)ethanone] | > 5000 | > 5000 |
| O=C(N[C@H]1[C@@H]2C[C@@](O)(c3cc(Cl)cc4[nH]ncc34)C[C@@H]21)c1ccccc1 [Example 93, N-((1R,3r,5S,6r)-3-(6-chloro-1H-indazol-4-yl)-3-hydroxybicyclo[3.1.0]hexan-6-yl)benzamide] | ≤ 500 | 500 to 1000 |
| O[C@@]1(c2cc(Cl)cc3cn[nH]c23)C[C@H]2C[C@H]2C1 [Example 118, (1R,3r,5S)-3-(5-chloro-1H-indazol-7-yl)bicyclo[3.1.0]hexan-3-ol] | 1000 to 5000 | > 5000 |
| CC(=O)N1C[C@@H]2C[C@@](O)(c3cc(Cl)cc4cn[nH]c34)C[C@@H]2C1 [Example 8, 1-((3aR,5r,6aS)-5-(5-chloro-1H-indazol-7-yl)-5-hydroxyhexahydrocyclopenta[c]pyrrol-2(1H)-yl)ethanone] | > 5000 | > 5000 |
| O=C(N[C@H]1[C@@H]2C[C@@](O)(c3cc(Cl)cc4[nH]ncc34)C[C@@H]21)c1nc2cc(Cl)ccc2[nH]1 [Example 136, 5-chloro-N-((1R,3r,5S,6r)-3-(6-chloro-1H-indazol-4-yl)-3-hydroxybicyclo[3.1.0]hexan-6-yl)-1H-benzo[d]imidazole-2-carboxamide] | ≤ 500 | 1000 to 5000 |
| CS(=O)(=O)N1C[C@H]2CC(C(O)c3cc(Cl)cc4cn[nH]c34)C[C@H]2C1 (stereo partly drawn) [Example 113, (5-chloro-1H-indazol-7-yl)((3aR,6aS)-2-(methylsulfonyl)octahydrocyclopenta[c]pyrrol-5-yl)methanol] | 1000 to 5000 | 1000 to 5000 |

Second part, the compound after the results:

| IC50 [1] [nM] | IC50 [2] [nM] | Compound |
| --- | --- | --- |
| ≤ 500 | ≤ 500 | N#Cc1cncc(C(=O)N[C@H]2[C@@H]3C[C@@](O)(c4cc(Cl)cc5[nH]ncc45)C[C@@H]32)c1 [Example 181, N-((1R,3r,5S,6r)-3-(6-chloro-1H-indazol-4-yl)-3-hydroxybicyclo[3.1.0]hexan-6-yl)-5-cyanonicotinamide] |
| ≤ 500 | ≤ 500 | O=C(N[C@H]1[C@@H]2C[C@@](O)(c3cc(Cl)cc4[nH]ncc34)C[C@@H]21)c1ccc(F)c(OC(F)(F)F)c1 [Example 180, N-((1R,3r,5S,6r)-3-(6-chloro-1H-indazol-4-yl)-3-hydroxybicyclo[3.1.0]hexan-6-yl)-4-fluoro-3-(trifluoromethoxy)benzamide] |
| ≤ 500 | ≤ 500 | O=C(N[C@H]1[C@@H]2C[C@@](O)(c3cc(C(F)(F)F)cc4[nH]ncc34)C[C@@H]21)c1cccc(Cl)c1 [Example 163, 3-chloro-N-((1R,3r,5S,6r)-3-hydroxy-3-(6-(trifluoromethyl)-1H-indazol-4-yl)bicyclo[3.1.0]hexan-6-yl)benzamide] |
| ≤ 500 | ≤ 500 | O=C(N[C@H]1[C@@H]2C[C@@](O)(c3cc(Cl)cc4[nH]ncc34)C[C@@H]21)c1cccc(C(F)(F)F)c1 [Example 142, N-((1R,3r,5S,6r)-3-(6-chloro-1H-indazol-4-yl)-3-hydroxybicyclo[3.1.0]hexan-6-yl)-3-(trifluoromethyl)benzamide] |
